Reference: patent US10597735B2, “Antibacterial and plasmid elimination agents” (priority 2006, dated 2020)
In brackets after ≈: the same amount, converted by molar mass. Read-outs that look alike come from different tables or passages of the source. Where a SMILES comes first, the peptide text is derived from it. Where no end group is shown, it is not given here.

Tests used:
ClpXP [1] = target: T1, ClpXP (Escherichia coli, UniProt P0A6G7+P0A6H1); test: ClpXP degradation of GFP-tag in the presence of SspB, continuous fluorimetric assay (Examples 1-2); assay type: biochemical, E. coli; details: GFP-tag degradation by ClpXP
T1 sequence (P0A6G7 15-207): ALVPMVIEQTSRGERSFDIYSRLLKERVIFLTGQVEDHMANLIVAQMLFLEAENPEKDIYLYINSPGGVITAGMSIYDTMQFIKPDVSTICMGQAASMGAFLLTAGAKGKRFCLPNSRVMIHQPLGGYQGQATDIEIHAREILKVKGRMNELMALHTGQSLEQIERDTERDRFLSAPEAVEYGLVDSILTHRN
T1 sequence (P0A6H1 whole entry): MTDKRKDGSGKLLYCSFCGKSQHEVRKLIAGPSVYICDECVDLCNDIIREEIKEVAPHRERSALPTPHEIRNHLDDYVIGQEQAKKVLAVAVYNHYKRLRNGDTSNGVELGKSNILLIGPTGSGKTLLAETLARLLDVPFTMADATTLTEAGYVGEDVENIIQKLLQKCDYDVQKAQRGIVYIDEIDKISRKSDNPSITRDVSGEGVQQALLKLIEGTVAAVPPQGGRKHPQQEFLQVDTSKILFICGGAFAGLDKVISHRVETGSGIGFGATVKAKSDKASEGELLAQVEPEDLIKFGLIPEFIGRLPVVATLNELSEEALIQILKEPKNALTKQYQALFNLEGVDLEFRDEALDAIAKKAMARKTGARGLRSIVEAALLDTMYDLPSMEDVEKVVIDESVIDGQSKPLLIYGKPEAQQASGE
Description: (§1) ClpXP Proteolysis: PD buffer contained 25 mM HEPES-KOH (pH 7.6), 5 mM KCl, 5 mM MgCl2, 0.032% NP-40, 5 mM ATP, and 10% glycerol. The ATP regenerating system consisted of 8 mM creatine phosphate and 0.16 mg/ml creatine kinase. Inhibition experiments were performed using a Hitachi F-2000 Fluorescence Spectrophotometer. The rate of GFP-ssrA degradation was monitored at 30° C. for 5 minutes by the loss of fluorescence (excitation 488 nm; emission 507 nm). Competition experiments with increasing concentrations of peptide were performed using GFP-ssrA (0.2 μM), ClpX6 (0.3 ArM), ClpP14 (0.8 μM), and SspB2 (0.3 μM) in PD buffer plus 200 mM KCl and ATP regenerating system. Curve fitting for the competitive inhibition assays were performed using the Scientist program (MicroMath Scientific Software, Inc.).
Characterization of ClpXP inhibitors in vitro: Two of the selected cyclic peptides were synthesized in vitro to examine their effects on enzymatic assays. Peptides with the sequence SGWRVQGPL (SEQ ID NO: 1) and SGSKGVLPL (SEQ ID NO: 2) were chemically synthesized in the linear form, circularized, and purified by HPLC. The effects of these peptides on the activity of purified ClpXP were determined in vitro using a continuous fluorimetric assay. GFP-tag, SspB, ClpX and ClpP were each purified from over-expressing strains of E. coli, and degradation of GFP-tag was monitored by loss of fluorescence. In reactions containing all components, GFP-tag was degraded with kinetic parameters kcat=1.79±0.08 min−1, KM=0.74±0.04, similar to the previously published values of 1.44 min^−1 and 0.96 μM. […] For both cyclic peptides, inhibition of ClpXP was reversible, as no inhibition was observed when ClpXP was incubated with peptide at concentrations above the Kr, and dialyzed to remove unbound peptide before addition of enzyme to the reaction. The linear versions of SGSKGVLPL (SEQ ID NO: 2) and SGWRVQGPL (SEQ ID NO: 1) had Kb, values >1 mM (Table 4), so the cyclic architecture is likely to be important for inhibition.

ClpXP [2] = target: T1, ClpXP; test: ClpXP degradation of GFP-tag in the absence of SspB (Examples 1-2); assay type: biochemical, E. coli; details: for Ki: GFP-tag degradation by ClpXP; for Ki / inhibition of GFP-tag degradation by ClpXP in the absence of SspB: no SspB
Description: as §1
A priori, there are several steps in the degradation pathway that could be inhibited by the selected cyclic peptides: binding of the substrate-SspB complex to ClpXP, ATPase activity of ClpX, and hydrolysis of the peptide bond by ClpP. Molecules that block the binding of substrate to SspB should not be inhibitors of proteolysis by ClpXP, because ClpXP will degrade tmRNA-tagged substrates in the absence of SspB. To determine if the inhibitors act through SspB, the kinetic assays were repeated in the absence of this proteolytic adaptor.

C. crescentus [3] = assay type: cell-based, Caulobacter crescentus
Description: Antibacterial activity: The peptides recovered from the selection were tested for antibacterial activity by incubating a 1:1,000 diluted saturated culture with the peptide overnight at room temperature. For each peptide a series of concentrations were tested. The mix was then plated, and the colonies were counted after a period incubation at 30° for C. crescentus or 37° C. for B. subtilis. For C. crescentus, PYE liquid media were incubated overnight at 30° C. at 250 rpm, and PYE plates were incubated for 3 days at 30° C. For B. subtilis, LB liquid media and plates were incubated overnight at 37° C. […]
Antibacterial activity of cyclic peptide inhibitors: Because ClpXP is essential in C. crescentus, we examined whether the inhibitory peptides have any effect when added exogenously to growing cultures. […] ClpXP is not essential in Bacillus subtilis, but mutants lacking ClpXP activity have growth and sporulation defects. […] No killing of E. coli or the related γ-proteobacteria Shigella flexneri and Vibrio cholera was observed. It remains to be determined if the selected cyclic peptides are effective against pathogenic bacterial that require the tmRNA-ClpXP pathway.

ClpXP [4] = target: T1, ClpXP; test: biochemical; assay type: biochemical, E. coli; details: for Ki: purified peptides and E. coli proteins, GFP-tag; for Ki / mode of inhibition of GFP-tag degradation: SspB present
Description: In vitro proteolysis assays: Proteolysis of GFP-tag was performed using a continuous fluorescence assay essentially as previously described (Levchenko et al. 2000, Science 289: 2354-2356). Briefly, loss of GFP fluorescence was monitored at 507 nm after excitation at 395 nm at 30° C. using a Hitachi F-2000 Fluorescence Spectrophotometer in buffer R (25 mM HEPES-KOH (pH 7.6), 5 mM MgCl2, 50 mM KCl, 0.032% NP-40, 10% glycerol, and an ATP regeneration system containing 4 mM ATP (pH 7), 16 mM creatine phosphate and 0.32 mg/ml creatine kinase). Typically, reactions contained […], 0.3 μM ClpP14, and equimolar concentrations (0.2 μM-2.0 μM) GFP-tag and SspB. Degradation of GFP-tag protein was confirmed by SDS-PAGE assays. To examine inhibition of GFP-tag proteolysis, peptides were incubated with ClpXP in reaction buffer for 5 min prior to the addition of GFP-tag. Plots of fluorescence versus time were fit with a single exponential function to determine the initial rate of proteolysis. Kinetic parameters were estimated using Eadie-Hofstee plots.
Proteolysis of GFP-tag in the presence of ClpXP and SspB was monitored by loss of GFP fluorescence in a continuous fluorometric assay. In the absence of cyclic peptide, GFP-tag was degraded with kinetic parameters kcat=[…], KM=0.74±0.04 μM. […] Likewise, no degradation was observed when ClpX or ClpP were omitted from the reaction.

C. crescentus [5] = assay type: cell-based, Caulobacter crescentus; details: 14 h
Description: Antibacterial activity assays: To measure the effects of peptides on bacterial growth, cultures of C. crescentus were diluted to OD600=0.001, peptide was added at various concentrations, the cultures were incubated at 30° C. for 14 h, and the MIC was determined as the lowest concentration of peptide that prevented growth. To determine the MBC, each culture was diluted 1:100 in PYE and 10 μl of the diluted culture was spread onto PYE agar plates, incubated at 30° C. overnight, and the number of colonies on each plate was counted. The MBC was assigned as the concentration of peptide that reduced the number of colonies by 99.9% compared to cultures with no inhibitor.

ClpXP [6] = target: T1, ClpXP; test: ClpXP degradation of λO protein (Example 1); assay type: biochemical, E. coli; details: concentrations near or 10-fold above the KI for GFP-tag
Description: The differing effects of SspB on inhibition indicate that inhibitors for two different steps in the ClpXP degradation pathway were obtained from the genetic screen. To confirm the different specificities of these two inhibitors, the effects on ClpXP degradation of a substrate unrelated to tmRNA tagged proteins was assayed. Because ClpXP can recognize at least 5 different protein sequences as substrate determinants, it has been proposed that there are several substrate binding sites on the protease. Inhibitors that block one site of interaction are expected to affect degradation of only the substrates that bind at that site. Conversely, inhibitors that block catalysis or obstruct a binding site required by all substrates should affect degradation of any ClpXP substrate.

[7] = system: GFP-tag degradation by ClpXP; test: In vivo screen: GFP-tag reporter fluorescence in E. coli producing the cyclic peptide from a SICLOPPS plasmid, epifluorescence microscopy (Example 3); assay type: cell-based
Description: Screen for inhibitors of the tmRNA pathway: E. coli BW7786 cells containing the GFP-tag reporter and the SICLOPPS library were grown in LB broth with 30 μg/ml chloramphenicol, 100 μg/ml ampicillin, and 0.0002% arabinose at 37° C. to OD600=0.3. IPTG was added to a final concentration of 1 mM, and the culture was grown for 3 hours. Cells were sorted by fluorescence activated cell sorting (FACS) using a Beckman Coulter Elite cell sorter with Autoclone to isolate cells with GFP fluorescence, and selected cells were deposited on agar plates for clonal growth. Cells from each colony were grown in liquid culture as described above and examined by epifluorescence microscopy. The fluorescence intensity and the number of cells with fluorescence above background were scored using ImagePro software (MediaCybernetics). SICLOPPS plasmid DNA was prepared from selected clones and the region encoding the cyclic peptide was sequenced. Peptide sequences were obtained from conceptual translation of the DNA sequences.
Approximately 0.014% of the population had fluorescence over the background level, and 96 of these cells were isolated for clonal growth and characterization. To eliminate any clones that resulted from sorting errors or spurious accumulation of GFP, cells from each colony were cultured and examined by epifluorescence microscopy.

GFP-tag reporter = GFP-tag reporter fluorescence in cells expressing SGW+5 SICLOPPS clones, epifluorescence microscopy (Example 1); assay type: cell-based, E. coli
Text: Clonal populations are obtained by spotting the cells with high fluorescence on agar plates, and cells from each colony are screened by epi-fluorescence microscopy for fluorescence intensity. SICLOPPS plasmids from clones that pass the microscopy screen were isolated and sequenced to identify the cyclic peptide that is produced in that clone.
A SICLOPPS library was constructed in which the cyclic peptide contains three constant amino acids, SGW, followed by five random amino acids encoded by NNS codons. This library was introduced into cells containing the GFP-tag reporter, and the expression of the reporter and cyclic peptide were induced. Approximately 690,000 cells were sorted by FACS and the brightest 50 were isolated. These 50 clones were grown individually in fresh medium, the expression of reporter and cyclic peptide was induced, and the culture was observed by epifluorescence microscopy. Two clones produced cultures in which nearly 100% of the cells were highly fluorescent.

[8] = SspB present, read-out: KI value +SspB

| Molecule | Ki (ClpXP [2]) | MIC (C. crescentus [3]) | Ki (ClpXP [4]) | MBC (C. crescentus [5]) | MIC (C. crescentus [5]) | inhibition of ClpXP proteolysis of GFP-tag in vitro (ClpXP [4]; at the concentrations tested) | also measured |
| --- | --- | --- | --- | --- | --- | --- | --- |
| CSCC[C@@H]1NC(=O)[C@H](Cc2c[nH]c3ccccc23)NC(=O)[C@H](CCCCN)NC(=O)[C@H](Cc2ccc(O)cc2)NC(=O)[C@@H]2CCCN2C(=O)[C@H](Cc2c[nH]c3ccccc23)NC(=O)CNC(=O)[C@H](CO)NC1=O [Con62, SGWPYKWM, reference compound] (HELM PEPTIDE1{G.W.P.Y.K.W.M.S}$PEPTIDE1,PEPTIDE1,1:R1-8:R2$$$V2.0) | > 1000 µM | >250 µM | > 1000 µM | >600 µM | >600 µM |  | Ki (ClpXP [1]; [8]): > 1000 µM |
| CC(C)C[C@@H]1NC(=O)[C@@H]2CCCN2C(=O)[C@H](CC(C)C)NC(=O)[C@H](C(C)C)NC(=O)CNC(=O)[C@H](CCCCN)NC(=O)[C@H](CO)NC(=O)CNC(=O)[C@H](CO)NC1=O [ICP1, SGSKGVLPL] (HELM PEPTIDE1{G.S.K.G.V.L.P.L.S}$PEPTIDE1,PEPTIDE1,1:R1-9:R2$$$V2.0) |  | 62.2 µM (≈ 52.2 µg/mL) |  |  |  | inhibited | inhibition of GFP-tag degradation by ClpXP in the absence of SspB (ClpXP [2]): inhibited; effect on degradation of λO protein by ClpXP (ClpXP [6]): inhibited; mode of inhibition of GFP-tag degradation (ClpXP [4]): competitive inhibitors |
| CC(C)C[C@@H]1NC(=O)[C@@H]2CCCN2C(=O)CNC(=O)[C@H](CCC(N)=O)NC(=O)[C@H](C(C)C)NC(=O)[C@H](CCCNC(=N)N)NC(=O)[C@H](Cc2c[nH]c3ccccc23)NC(=O)CNC(=O)[C@H](CO)NC1=O [ICP2, SGWRVQGPL] (HELM PEPTIDE1{G.P.L.S.G.W.R.V.Q}$PEPTIDE1,PEPTIDE1,1:R1-9:R2$$$V2.0) | > 1000 µM | 62.2 µM (≈ 61 µg/mL) |  |  |  | inhibited | inhibition of GFP-tag degradation by ClpXP in the absence of SspB (ClpXP [2]): did not inhibit; KI in the absence of SspB, fold higher (ClpXP [2]; no SspB versus +SspB): at least 10 fold; effect on degradation of λO protein by ClpXP (ClpXP [6]): no effect; mode of inhibition of GFP-tag degradation (ClpXP [4]): competitive inhibitors |
| CSCC[C@@H]1NC(=O)CNC(=O)[C@H](CCCNC(=N)N)NC(=O)[C@H](CCCNC(=N)N)NC(=O)[C@H](Cc2c[nH]cn2)NC(=O)[C@H](Cc2c[nH]c3ccccc23)NC(=O)CNC(=O)[C@H](CO)NC1=O [IXP2, SGWHRRGM] (HELM PEPTIDE1{G.M.S.G.W.H.R.R}$PEPTIDE1,PEPTIDE1,1:R1-8:R2$$$V2.0) |  |  | > 1000 µM | >600 µM | 430 ± 40 µM (≈ 416 µg/mL) | did not inhibit | % fluorescent cells ([7]; cells with fluorescence at least 0.5 times that of ΔclpX cells producing GFP-tag): 30-40%; GFP-tag fluorescence / inhibition in vivo ([7]; compared with ΔclpX strain): indistinguishable from the ΔclpX strain; average fluorescent intensity relative to cultures expressing ICP1 or ICP2 (GFP-tag reporter): more than twice; cells highly fluorescent (GFP-tag reporter; induced culture): ~100% |
| H-SGSKGVLPL-OH [linICP1, SGSKGVLPL] | > 1500 µM | >250 µM |  |  |  |  | Ki (ClpXP [1]; [8]): > 1500 µM; Ki (ClpXP [1]; read-out: Kb, values (KI) of linear versions): > 1000 µM; inhibition of ClpXP in vitro at concentrations up to 1 mM (ClpXP [4]): little inhibition |
| H-SGWYGRRH-OH [linear IXP1, SGWYGRRH] |  |  | > 1000 µM | 481 ± 38 µM | 385 ± 28 µM |  | inhibition of ClpXP in vitro at concentrations up to 1 mM (ClpXP [4]): little inhibition |
| SGGRGGRPL (also: cyclic, mode of cyclisation not given here) [IXP5] |  |  |  |  |  |  | inhibition of ClpXP proteolysis of GFP-tag in vitro (ClpXP [4]): did not inhibit |
| SGWHRRGM [linear IXP2, SGWHRRGM] |  |  |  | 376 ± 37 µM | 304 ± 27 µM |  |  |
| SGWRVQGPL [linICP2, SGWRVQGPL] |  | >250 µM |  |  |  |  |  |
